Here are results for nine compounds from patent US20200163954A1 (Exelixis, Inc., priority 2014, published 2020).

Like-named read-outs stand apart in the source and are kept apart here. Bounds are passed on as bounds.

Data set [1] can be described thus: Metabolite profiling in human plasma, urine and feces (mass balance study, [14C] cabozantinib). Format: in vivo. Conditions: for Presence in pooled fecal sample, 0-72 hours post dose / Presence in pooled fecal sample, 144-192 hours post dose: human feces; for Peak on plasma radio-chromatograms: human plasma, one subject, single 175 mg oral dose of cabozantinib (L-malate salt) with [14C] cabozantinib. How it is done:
The objective of this study was to profile and identify metabolites of cabozantinib in human plasma, urine, and feces.
The plasma, urine, and fecal samples were collected from the 8 subjects for the metabolite profiling.
All samples were shipped to QPS LLC (Newark, Del.) and stored at −70° C. HPLC/tandem MS coupled with a radio flow-through detector (RFD) was used for metabolite profiling and identification for samples with sufficient levels of radioactivity.
HPLC fraction collection followed by counting with TopCount NXT™ was used for radioquantitation of plasma samples with sufficient levels of radioactivity. […] HPLC Method 1 was used for the analysis of pooled urine and fecal samples and individual plasma samples from different time points. […] HPLC Method 3 was used for pooled plasma samples.
For the investigation of co-eluting metabolites, nonradiolabeled plasma samples of six subjects were pooled, processed, and analyzed for pre-dose, 1-7, 8-96, and 120-336 hours post-dose. […] [^14C]
Radiolabeled and non-radiolabeled plasma samples were extracted employing the same method, using 1.0-2 mL plasma samples, depending on the volume available and radioactivity level of the samples. The supernatants were evaporated to dryness under a stream of nitrogen in an ambient water bath, and the residues were reconstituted in 0.35-0.5 mL of MeOH:ACN:water (10:20:70, v/v/v). The reconstituted samples were centrifuged at 15,000 rpm for 10 minutes. Aliquots of the supernatants were injected onto the HPLC system for analysis.
The radioactivity in pooled urine and reconstituted solution was counted using LSC, and the reconstitution recovery calculated. […] Each pooled urine sample was lyophilized, the residue was reconstituted in water:ACN:FA (80:20:0.1, v/v/v), and the reconstituted sample was centrifuged at 15,000 rpm for 10 min before analysis.
The supernatants were dried under a nitrogen stream, and the residues were reconstituted in water:ACN:FA (80:20:0.1, v/v/v). The reconstituted samples were centrifuged at 15,000 rpm for 10 min before analysis.
The system for metabolite profiling and identification (HPLC/MS/RFD) consisted of a HTC PAL autosampler, a Surveyor HPLC pump, a LTQ linear ion trap mass spectrometer, and a β-RAM Model 3 RFD. The data obtained by mass spectrometry and RFD were processed by Xcalibur and Laura Lite 3 software, respectively. The HPLC eluent was split between the RFD and mass spectrometer with a ratio of 3 to 1. The following are the summary of the conditions for HPLC, mass spectrometer, and RFD.
For plasma samples, percent of total radioactivity in the sample for each peak at each time point was calculated and converted to ng/mL.

A short description of data set [2]: PK parameters of cabozantinib and measured metabolites in human subjects. It counts as in vivo. Conditions: for AUC(0-inf) / Cmax / Tmax / AUC(0-t) / half-life: human, plasma, oral, 140 mg/day; for half-life: read-out: t1/2, apparent terminal elimination half-life (converted).
Data set [3] addresses T1, Flt-4 (Homo sapiens, UniProt P35916).
T1 construct: purchased EMD Millipore (Kinase Profiler service)
The experiment in a line: Kinase activity (EMD Millipore Kinase Profiler), Flt-4. It counts as biochemical. The note with it: class symbol; read-out: Flt-4 Std (IC50).

Data set [4] has as its target T2, Flt-3 (Homo sapiens, UniProt P36888).
T2 construct: purchased EMD Millipore (Kinase Profiler service)
T2 sequence (P36888 27-993): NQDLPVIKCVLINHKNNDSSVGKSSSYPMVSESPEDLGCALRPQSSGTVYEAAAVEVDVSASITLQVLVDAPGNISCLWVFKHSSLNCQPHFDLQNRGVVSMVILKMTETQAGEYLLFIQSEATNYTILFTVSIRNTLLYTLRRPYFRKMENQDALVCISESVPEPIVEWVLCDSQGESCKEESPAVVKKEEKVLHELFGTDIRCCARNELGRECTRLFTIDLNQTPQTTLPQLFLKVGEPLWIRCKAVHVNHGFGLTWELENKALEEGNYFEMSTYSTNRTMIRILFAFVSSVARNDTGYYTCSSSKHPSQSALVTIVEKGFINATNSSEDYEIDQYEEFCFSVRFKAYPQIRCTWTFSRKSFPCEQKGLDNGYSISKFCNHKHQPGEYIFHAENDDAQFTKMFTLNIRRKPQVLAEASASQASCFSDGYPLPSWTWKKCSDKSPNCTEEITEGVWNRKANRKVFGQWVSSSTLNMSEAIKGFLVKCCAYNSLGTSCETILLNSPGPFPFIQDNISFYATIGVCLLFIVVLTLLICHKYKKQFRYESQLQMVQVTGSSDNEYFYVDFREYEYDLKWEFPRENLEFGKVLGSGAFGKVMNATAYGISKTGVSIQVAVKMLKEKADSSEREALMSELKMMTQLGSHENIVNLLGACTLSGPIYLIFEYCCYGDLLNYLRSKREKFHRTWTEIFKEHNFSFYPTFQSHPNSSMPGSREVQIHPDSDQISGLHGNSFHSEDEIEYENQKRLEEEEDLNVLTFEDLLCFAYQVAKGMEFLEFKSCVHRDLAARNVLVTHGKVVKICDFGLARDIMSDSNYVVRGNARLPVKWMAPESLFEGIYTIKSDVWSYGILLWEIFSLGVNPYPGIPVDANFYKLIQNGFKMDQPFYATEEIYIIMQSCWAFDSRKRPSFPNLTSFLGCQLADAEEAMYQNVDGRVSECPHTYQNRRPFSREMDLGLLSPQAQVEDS
The experiment in a line: Kinase activity (EMD Millipore Kinase Profiler), Flt-3. Format: biochemical. The note with it: class symbol; read-out: Flt-3 Std (IC50).

The target in data set [5] is T3, KDR (Homo sapiens, UniProt P35968).
T3 construct: purchased EMD Millipore (Kinase Profiler service)
T3 sequence (P35968 20-1356): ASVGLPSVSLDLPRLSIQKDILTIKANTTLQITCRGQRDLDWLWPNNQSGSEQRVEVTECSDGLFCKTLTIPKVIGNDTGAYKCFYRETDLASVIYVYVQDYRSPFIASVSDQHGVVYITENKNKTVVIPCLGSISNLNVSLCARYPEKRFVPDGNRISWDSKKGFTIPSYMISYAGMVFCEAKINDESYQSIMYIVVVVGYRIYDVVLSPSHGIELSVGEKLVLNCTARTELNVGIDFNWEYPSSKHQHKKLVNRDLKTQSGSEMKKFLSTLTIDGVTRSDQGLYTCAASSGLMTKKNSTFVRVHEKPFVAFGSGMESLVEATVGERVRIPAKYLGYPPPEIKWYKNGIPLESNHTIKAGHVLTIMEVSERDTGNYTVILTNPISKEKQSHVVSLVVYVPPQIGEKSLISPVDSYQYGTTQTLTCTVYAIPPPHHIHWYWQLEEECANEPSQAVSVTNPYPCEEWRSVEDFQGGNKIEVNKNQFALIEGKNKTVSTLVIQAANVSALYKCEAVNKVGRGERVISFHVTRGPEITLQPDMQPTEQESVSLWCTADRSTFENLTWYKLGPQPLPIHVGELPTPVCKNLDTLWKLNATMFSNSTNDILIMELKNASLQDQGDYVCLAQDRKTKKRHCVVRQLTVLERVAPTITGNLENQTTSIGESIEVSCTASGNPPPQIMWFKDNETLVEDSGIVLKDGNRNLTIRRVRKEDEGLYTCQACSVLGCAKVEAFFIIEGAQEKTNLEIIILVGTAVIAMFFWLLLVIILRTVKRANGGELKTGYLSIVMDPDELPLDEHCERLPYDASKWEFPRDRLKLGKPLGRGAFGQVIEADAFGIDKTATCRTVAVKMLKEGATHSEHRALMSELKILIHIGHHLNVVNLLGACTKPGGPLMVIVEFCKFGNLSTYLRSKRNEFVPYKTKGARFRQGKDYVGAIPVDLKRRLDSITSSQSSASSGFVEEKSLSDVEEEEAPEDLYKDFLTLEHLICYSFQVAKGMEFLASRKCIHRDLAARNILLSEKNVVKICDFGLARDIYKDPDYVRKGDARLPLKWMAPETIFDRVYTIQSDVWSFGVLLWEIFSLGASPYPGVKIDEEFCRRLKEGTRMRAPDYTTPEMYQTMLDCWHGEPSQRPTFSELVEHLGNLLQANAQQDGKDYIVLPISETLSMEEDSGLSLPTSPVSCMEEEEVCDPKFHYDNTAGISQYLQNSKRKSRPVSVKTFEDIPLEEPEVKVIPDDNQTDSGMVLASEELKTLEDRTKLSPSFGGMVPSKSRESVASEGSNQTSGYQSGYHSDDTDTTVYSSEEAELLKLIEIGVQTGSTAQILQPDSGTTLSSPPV
The experiment in a line: Kinase activity (EMD Millipore Kinase Profiler), KDR. It counts as biochemical. The note with it: class symbol; read-out: KDR Std (IC50).

The target of data set [6] is T4, c-Met (Homo sapiens, UniProt P08581).
T4 construct: purchased EMD Millipore (Kinase Profiler service)
T4 sequence (P08581 25-1390): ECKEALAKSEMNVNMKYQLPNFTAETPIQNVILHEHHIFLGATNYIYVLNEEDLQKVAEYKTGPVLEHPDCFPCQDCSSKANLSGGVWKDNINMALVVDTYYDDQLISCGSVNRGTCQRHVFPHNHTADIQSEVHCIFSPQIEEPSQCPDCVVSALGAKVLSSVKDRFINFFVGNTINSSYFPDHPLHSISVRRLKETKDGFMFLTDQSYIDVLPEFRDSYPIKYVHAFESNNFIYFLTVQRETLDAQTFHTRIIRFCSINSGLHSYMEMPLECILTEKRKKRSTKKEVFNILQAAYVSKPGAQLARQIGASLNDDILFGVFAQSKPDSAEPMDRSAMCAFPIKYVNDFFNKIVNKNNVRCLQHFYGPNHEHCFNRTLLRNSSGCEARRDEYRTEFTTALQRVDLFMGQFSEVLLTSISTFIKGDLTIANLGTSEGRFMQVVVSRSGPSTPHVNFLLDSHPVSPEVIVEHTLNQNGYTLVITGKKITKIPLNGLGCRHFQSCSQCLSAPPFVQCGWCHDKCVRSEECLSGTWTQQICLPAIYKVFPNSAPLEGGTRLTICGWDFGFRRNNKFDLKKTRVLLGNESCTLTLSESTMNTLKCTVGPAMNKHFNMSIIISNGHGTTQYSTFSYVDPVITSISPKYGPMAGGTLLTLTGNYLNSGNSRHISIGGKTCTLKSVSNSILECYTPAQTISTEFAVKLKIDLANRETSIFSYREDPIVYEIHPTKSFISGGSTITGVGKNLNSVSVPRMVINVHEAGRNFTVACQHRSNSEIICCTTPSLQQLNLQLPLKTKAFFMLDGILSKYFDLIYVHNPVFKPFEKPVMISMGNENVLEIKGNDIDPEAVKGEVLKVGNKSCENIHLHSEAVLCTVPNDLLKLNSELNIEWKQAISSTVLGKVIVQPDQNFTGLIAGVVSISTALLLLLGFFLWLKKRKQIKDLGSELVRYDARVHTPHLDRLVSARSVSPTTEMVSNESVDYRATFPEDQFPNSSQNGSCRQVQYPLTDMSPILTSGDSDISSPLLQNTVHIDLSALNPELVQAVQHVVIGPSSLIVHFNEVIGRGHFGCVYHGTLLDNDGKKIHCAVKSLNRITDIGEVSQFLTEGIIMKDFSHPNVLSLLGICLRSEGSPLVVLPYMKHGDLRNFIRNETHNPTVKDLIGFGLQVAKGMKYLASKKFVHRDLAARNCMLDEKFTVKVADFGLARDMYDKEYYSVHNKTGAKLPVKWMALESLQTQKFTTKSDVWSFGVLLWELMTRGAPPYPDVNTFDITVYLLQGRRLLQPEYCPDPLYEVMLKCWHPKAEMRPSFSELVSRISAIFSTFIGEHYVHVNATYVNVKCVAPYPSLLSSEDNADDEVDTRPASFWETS
The experiment in a line: Kinase activity (EMD Millipore Kinase Profiler), c-Met. Format: biochemical. Conditions: class symbol; read-out: c-Met Std (IC50).

Where [7] appears, read: HPLC Method 1, single 175 mg oral dose.
Setting [8] is: eight human subjects, cabozantinib 140 mg/day, time zero to 24 hours post dose, read-out: AUC0-24.
Where [9] appears, read: eight human subjects, cabozantinib 140 mg/day, time zero to 72 hours post dose, read-out: AUC0-72.
The mark [10] stands for this setting: eight human subjects, cabozantinib 140 mg/day, time zero to last measurable concentration, read-out: AUC0-t.
The mark [11] stands for this setting: human urine, HPLC Method 1, single 175 mg oral dose.

T1 sequence (P35916 25-1363): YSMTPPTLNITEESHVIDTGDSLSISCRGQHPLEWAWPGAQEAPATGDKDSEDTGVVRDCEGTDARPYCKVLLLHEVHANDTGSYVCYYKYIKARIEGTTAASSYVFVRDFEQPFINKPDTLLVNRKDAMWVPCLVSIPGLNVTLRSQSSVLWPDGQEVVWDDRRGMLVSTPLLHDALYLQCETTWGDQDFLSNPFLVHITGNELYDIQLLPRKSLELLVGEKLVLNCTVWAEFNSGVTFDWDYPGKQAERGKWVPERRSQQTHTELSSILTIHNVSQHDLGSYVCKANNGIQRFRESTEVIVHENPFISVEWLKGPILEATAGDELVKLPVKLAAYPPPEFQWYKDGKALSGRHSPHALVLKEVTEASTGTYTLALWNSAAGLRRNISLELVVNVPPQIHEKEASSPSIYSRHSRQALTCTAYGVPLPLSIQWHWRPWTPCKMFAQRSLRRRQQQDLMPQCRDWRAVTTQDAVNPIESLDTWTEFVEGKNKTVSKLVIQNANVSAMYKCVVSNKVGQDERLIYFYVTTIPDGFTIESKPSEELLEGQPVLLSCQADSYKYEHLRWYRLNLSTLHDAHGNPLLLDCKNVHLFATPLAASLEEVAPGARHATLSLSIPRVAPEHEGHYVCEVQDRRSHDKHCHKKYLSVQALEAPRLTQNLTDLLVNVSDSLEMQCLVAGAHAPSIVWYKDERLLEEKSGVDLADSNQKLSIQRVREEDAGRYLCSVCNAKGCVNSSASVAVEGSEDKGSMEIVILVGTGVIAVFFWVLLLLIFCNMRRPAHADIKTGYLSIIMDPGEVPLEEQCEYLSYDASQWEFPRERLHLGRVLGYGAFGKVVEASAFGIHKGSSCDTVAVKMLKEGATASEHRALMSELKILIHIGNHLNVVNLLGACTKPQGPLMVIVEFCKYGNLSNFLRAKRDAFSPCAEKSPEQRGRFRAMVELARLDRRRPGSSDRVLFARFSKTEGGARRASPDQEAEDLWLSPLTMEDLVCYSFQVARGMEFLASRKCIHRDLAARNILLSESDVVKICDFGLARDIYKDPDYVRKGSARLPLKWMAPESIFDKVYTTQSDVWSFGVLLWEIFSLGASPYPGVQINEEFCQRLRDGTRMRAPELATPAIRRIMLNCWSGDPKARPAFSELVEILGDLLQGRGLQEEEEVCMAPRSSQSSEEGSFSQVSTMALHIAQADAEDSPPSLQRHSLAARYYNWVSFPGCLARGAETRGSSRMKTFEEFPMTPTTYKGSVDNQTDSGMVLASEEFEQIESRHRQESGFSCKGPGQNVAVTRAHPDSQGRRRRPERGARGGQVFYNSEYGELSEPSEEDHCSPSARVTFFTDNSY

Broadly, the AUC(0-inf) is the area under the concentration-time curve extrapolated to infinity. By Cmax is commonly meant the highest concentration seen after dosing. As a reminder, the Tmax is the time at which the peak concentration occurs. Broadly, the IC50 is the concentration at which inhibition is half-maximal. As for `COc1cc2nccc(Oc3ccc(NC(=O)C4(C(=O)Nc5ccc(F)cc5)CC4)cc3)c2cc1OC` [Cabozantinib, N-(4-{[6,7-bis(methyloxy)quinolin-4-yl]oxy}phenyl)-N′-(4-fluorophenyl)cyclopropane-1,1-dicarboxamide, reference compound], in data set [1] (setting [7]), the “Presence in pooled fecal sample, 0-72 hours post dose” value is “observed”. Moreover, the “Peak on plasma radio-chromatograms” value in data set [1] was “major peaks”. Also, the “Presence in urine samples” value in data set [1] (human urine, all samples, single 175 mg oral dose) was “not observed”. Also, in data set [2] (eight human subjects, cabozantinib 140 mg/day), the “kel, apparent terminal elimination rate constant” value was 0.00712 ± 0.001 h⁻¹. For the same compound, in data set [2], the area under the curve AUC(0-inf) is 68000 ± 6910 ng·h/mL. Further, the maximum concentration (Cmax) in data set [2] was determined as 1250 ng/mL. Besides, in data set [2], the Tmax was found to be 1.49 h. Besides, the results for the AUC(0-t) in data set [2] (setting [8]), in data set [2] (setting [9]) and in data set [2] (setting [10]) were 14300 ± 2600 ng·h/mL, 35000 ± 6770 ng·h/mL and 67200 ± 6880 ng·h/mL, respectively. Also, in data set [3], the IC50 is less than 50 nM.

As to `COc1cc2nccc(Oc3ccc(N)cc3)c2cc1O` [Compound 1], in data set [1] (setting [11]), the “Presence in pooled urine sample, 0-72 hours post dose” value was “observed”; the “Presence in pooled urine sample, 144-192 hours post dose” value was “observed”; the “Presence in pooled urine sample, 288-336 hours post dose” value was “detected”.

Take `COc1cc2nccc(Oc3ccc(NC(=O)C4(C(=O)O)CC4)cc3)c2cc1OC` [Compound 7, 1-[4-(6,7-Dimethoxy-quinolin-4-yloxy)-phenylcarbamoyl]-cyclopropane carboxylic Acid]: in data set [1] (setting [7]), the “Presence in pooled fecal sample, 0-72 hours post dose” value is listed as “observed” and the “Presence in pooled fecal sample, 144-192 hours post dose” value was “observed”. In data set [1], the “Peak on plasma radio-chromatograms” value was “one of the minor peaks”. Moreover, in data set [1] (setting [11]), the “Presence in pooled urine sample, 0-72 hours post dose” value was “observed” and the “Presence in pooled urine sample, 144-192 hours post dose” value is “observed”.

Take `COc1cc2nccc(Oc3ccc(NC(=O)C4(C(=O)Nc5ccc(F)c(O)c5)CC4)cc3)c2cc1OC` [Compound 13]: the concentration for half-maximal inhibition (IC50) in data set [4], in data set [5] and in data set [6] was less than 50 nM in each case.

Consider `COc1cc2nccc(Oc3ccc(NC(=O)C4(C(=O)Nc5ccc(F)cc5O)CC4)cc3)c2cc1OC` [Compound 16], for which the “Presence in pooled fecal sample, 0-72 hours post dose” value in data set [1] (setting [7]) is given as “observed”. Further, the “Presence in pooled fecal sample, 144-192 hours post dose” value in data set [1] (setting [7]) is on record as “observed”. The concentration for half-maximal inhibition (IC50) in data set [4], in data set [5] and in data set [6] was less than 50 nM each time.

Consider `COc1cc2c(Oc3ccc(NC(=O)C4(C(=O)Nc5ccc(F)cc5)CC4)cc3)cc[n+]([O-])c2cc1OC` [Compound 19, Cabozantinib N-Oxide], for which, in data set [1], the “Peak on plasma radio-chromatograms” value is on record as “major peaks”. For the same compound, the “Presence in pooled urine sample, 0-72 hours post dose” value in data set [1] (setting [11]) is listed as “observed”.

With `COc1cc2nccc(Oc3ccc(NC(=O)C4(C(=O)O)CC4)cc3)c2cc1OC` [drawing 45], in data set [2], the AUC(0-inf) was 6770 ng·h/mL, the Cmax came out at 52.9 ng/mL, the Tmax stood at 19 h and the half-life was 91.8 h. Moreover, the AUC(0-t) in data set [2] (setting [8]) is 1080 ng·h/mL. Besides, the AUC(0-t) in data set [2] (setting [9]) came out at 3120 ng·h/mL. The AUC(0-t) in data set [2] (setting [10]) amounted to 6540 ng·h/mL.

`COc1cc2c(Oc3ccc(NC(=O)C4(C(=O)Nc5ccc(F)cc5)CC4)cc3)cc[n+]([O-])c2cc1OC` [drawing 46]: in data set [2], the AUC(0-inf) is 10300 ng·h/mL, the Cmax came to 118 ng/mL, the Tmax turned out to be 13.5 h and the half-life is 89.2 h. In data set [2] (setting [8]), the AUC(0-t) came to 2030 ng·h/mL. The AUC(0-t) in data set [2] (setting [9]) is 5610 ng·h/mL. Also, in data set [2] (setting [10]), the AUC(0-t) amounted to 10100 ng·h/mL.

Take `COc1cc2nccc(Oc3ccc(NC(=O)C4(C(=O)Nc5ccc(F)cc5OS(=O)(=O)O)CC4)cc3)c2cc1OC` [drawing 47]: in data set [2], the area under the curve AUC(0-inf) was found to be 29500 ng·h/mL, the highest concentration (Cmax) stood at 236 ng/mL, the Tmax worked out at 24 h and the half-life was 86 h. Besides, in data set [2] (setting [8]), the AUC(0-t) was 3970 ng·h/mL. For the same compound, in data set [2] (setting [9]), the AUC(0-t) is 12600 ng·h/mL. Also, the AUC(0-t) in data set [2] (setting [10]) worked out at 28900 ng·h/mL.
